Measured values taken from publication PMC12062876, “Efficient constitution of a library of rotenoid analogs active against Trypanosoma cruzi from a digitalized plant extract collection” (RSC Advances, 2025).
Like-named read-outs stand apart in the source and are kept apart here.

Key:
[1] = Cytotoxicity assay: L-6 cells; format: cell-based; conditions: rat skeletal myoblast (L6 cells); means of two independent assays
Protocol: The pure compounds cytotoxicity was assessed against L6 cells as described in ref. [27].

T. cruzi amastigotes [2] = experiment: Activity against intracellular T. cruzi amastigotes; format: cell-based, Trypanosoma cruzi; conditions: for Selectivity index: SI = IC50 cytotoxicity/IC50 against T. cruzi; for IC50: Trypanosoma cruzi, read-out: IC50 T. cruzi amastigotes; for activity against T. cruzi (in words): intracellular amastigotes
From the text: The bioactivity of isolated compounds against intracellular T. cruzi amastigotes grown in rat L6 […] is presented in Table 1. […] Rotenone and deguelin are known to be strong mitochondrial complex I (also known as NADH:ubiquinone oxidoreductase) inhibitors,[43–45] while different activities between closely related rotenoids (rotenone, 5′-α-epirotenone, and 5′-β-epirotenone) has already been shown. […] The variation in activity observed on our rapidly generated series of structural analogs points in the same direction. As shown in Fig. 3 and Table 1, the cyclic and bent form of the rotenoid at the B/C ring junction is essential for activity, since compounds 40 and 41 were not active.
The pure compounds activity was assessed against T. cruzi amastigotes as described in ref. [27].

Haemonchus contortus = conditions: cited from earlier work
[3] = tested on: L6 cells (rat skeletal myoblast); conditions: commercial standards; cited from earlier work
T. cruzi amastigotes [4] = conditions: commercial standards; cited from earlier work
[5] = intracellular amastigotes grown in rat L6 cells, means of two independent assays

Row | SMILES | IC50 [1] [µM] | Selectivity index (T. cruzi amastigotes [2]) | IC50 (T. cruzi amastigotes [2]; [5]) [µM] | nematocidal activity (Haemonchus contortus) | toxicity to the host cell [3] | IC50 against the amastigote form of the parasite (T. cruzi amastigotes [4]) | IC50 (T. cruzi amastigotes [2]; L6, in Rattus norvegicus) [µM] | activity against T. cruzi (in words) (T. cruzi amastigotes [2])
1 | CC(C)=CCc1cc2c(cc1O)OC[C@@H](c1ccc(O)cc1O)C2 [Compound 3, manuifolin H] | 106 | 3.7 | 28.3 |  |  |  |  | 
2 | COc1cc2c(cc1OC)[C@@H]1C(=O)c3ccc4c(c3O[C@@H]1CO2)C=CC(C)(C)O4 [Compound 39, deguelin] | 19.4 | 1148.5 | 0.02 | potent nematocidal activity | without toxicity | nanomolar |  | 
3 | COc1cc2c(cc1OC)[C@]1(O)C(=O)c3ccc4occc4c3O[C@@H]1CO2 [Compound 36, 12a-hydroxyelliptone] | 100 | 18.5 | 5.42 |  |  |  |  | 
4 | O=c1cc(-c2ccccc2)oc2c1ccc1occc12 [Compound 10, lanceolatin B] | 130 | 13.6 |  |  |  |  | 9.58 | 
5 | C=C(C)[C@H]1Cc2c(ccc3c2O[C@@H]2COc4cc(OC)c(OC)cc4[C@@H]2C3=O)O1 [Compound 37, rotenone] | 0.48 | 51.7 |  | potent nematocidal activity | without toxicity | nanomolar | 0.01 | 
6 | CC1(C)C=Cc2c(ccc3c(=O)c(-c4cc(O)c5c(c4)OCO5)coc23)O1 [Compound 40, norisojamaicin] | 123 | 5.7 | 21.8 |  |  |  |  | not active
7 | COc1c2c(cc3ccoc13)C(=O)[C@@]1(O)c3cc4c(cc3OC[C@H]1O2)OCO4 (relative stereo) [Compound 29, 12a-hydroxypachyrhizone] | 125 | 1.3 | 93.2 |  |  |  |  | 
8 | O=C1c2cc3ccoc3cc2O[C@@H]2COc3cc4c(cc3[C@]12O)OCO4 (relative stereo) [Compound 30, 12a-hydroxydolineone] | 141 | 0.7 | 195 |  |  |  |  | 
9 | COc1cc2c(cc1OC)[C@@H]1C(=O)c3cc4ccoc4cc3O[C@@H]1CO2 (relative stereo) [Compound 32, erosone] | 115 | 2.9 | 39.3 |  |  |  |  | 
10 | C=C(CO)C1Cc2cc3c(cc2O1)OCC1c2cc4c(cc2OC31)OCO4 (stereo not drawn) [Compound 18, (2′R)-4′-hydroxyemoroidocarpan] | 118 | 2.9 | 40.1 |  |  |  |  | 
11 | CC(C)=CCc1cc2c(cc1O)OCC(c1ccc(O)cc1)C2O (stereo not shown) [Compound 2, bavaisoflavanol] | 49.5 | 1.1 | 43.1 |  |  |  |  | 
12 | COc1ccc(-c2coc3cc(O)ccc3c2=O)cc1 [Compound 22, formononetin] | 224 | 1.0 | 217 |  |  |  |  | 
13 | COc1cc2c(cc1OC)[C@]1(O)[C@H](OC(C)=O)c3ccc4occc4c3O[C@@H]1CO2 (relative stereo) [Compound 33, 12-deoxo-12α-acetoxy-12a-β-hydroxyelliptone] | 98.2 | 1.5 | 65.1 |  |  |  |  | 
14 | C=C(C)/C=C/c1c(OC)ccc2c1OC(c1ccccc1)CC2=O (stereo not shown) [Compound 9, dehydroisoderricin] | 95.4 | 1.4 | 66.2 |  |  |  |  | 
15 | COc1ccc(-c2coc3cc(OC)c(O)cc3c2=O)cc1 [Compound 25, alfalone] | 263 | 1.1 | 241 |  |  |  |  | 
16 | CC(C)(O)C(OC(=O)C=Cc1ccccc1)C1COc2ccc3c(c21)OC(c1ccccc1)CC3=O (stereo not shown) [Compound 14, 2-hydroxy-2-methyl-1-(4-oxo-2-phenyl-3,4,8,9-tetrahydro-2H-furo[2,3-h]chromen-9-yl)propyl cinnamate] | 81.6 | 5.1 | 16 |  |  |  |  | 
17 | CC(C)=CCc1c(O)ccc(C(=O)/C=C/c2ccc(O)cc2)c1O [Compound 7, isobavachalcone] | 104 | 1.7 | 60.1 |  |  |  |  | 
18 | Oc1ccc2c(c1)OC[C@H]1c3cc4c(cc3O[C@@H]21)OCO4 [Compound 16, maackiain] | 156 | 1.3 | 119 |  |  |  |  | 
19 | COc1ccc(-c2coc3c4c(cc(O)c3c2=O)OC(C)(C)C=C4)cc1O [Compound 41, 3′-hydroxy-4′-O-metyhlerrone] | 55.7 | 6.9 | 8.04 |  |  |  |  | not active
20 | COc1cc2c(cc1OC)[C@]1(O)C(=O)c3ccc4c(c3O[C@@H]1CO2)C=CC(C)(C)O4 [Compound 38, tephrosin] | 72.4 | 1937.0 |  |  |  |  | 0.04 | 
21 | COc1cc2c(cc1-c1coc3cc4occc4cc3c1=O)OCO2 [Compound 28, dehydroneotenone] | 18.3 | 5.1 | 3.59 |  |  |  |  | 

Row | SMILES | IC50 [1] [µM] | Selectivity index (T. cruzi amastigotes [2]) | IC50 (T. cruzi amastigotes [2]; [5]) [µM] | nematocidal activity (Haemonchus contortus) | toxicity to the host cell [3] | IC50 against the amastigote form of the parasite (T. cruzi amastigotes [4]) | IC50 (T. cruzi amastigotes [2]; L6, in Rattus norvegicus) [µM] | activity against T. cruzi (in words) (T. cruzi amastigotes [2])
22 | COc1c(C(=O)/C=C(\O)c2ccccc2)ccc2occc12 [Compound 8, pongamol] | 73.6 | 2.7 | 26.8 |  |  |  |  | 
23 | COc1cc(O)ccc1[C@@H]1COc2cc(O)c(CC=C(C)C)cc2C1 [Compound 1, 2′-O-methylmanuifolin H] | 99 | 3.5 | 28.2 |  |  |  |  | 
24 | C=C(C)[C@H]1Cc2cc3c(cc2O1)oc(=O)c1c2cc4c(cc2oc31)OCO4 [Compound 19, tephcalostan] | 119 | 1.8 | 65.6 |  |  |  |  | 
25 | COc1cc([C@@H]2c3cc4c(cc3[C@H](O)[C@H]3COC(=O)[C@H]23)OCO4)cc(OC)c1OC [Podophyllotoxin, reference compound] | 0.02 |  |  |  |  |  |  | 
26 | COc1cc2occ(-c3ccc4c(c3)OCO4)c(=O)c2cc1O [Compound 24, acicerone] | 186 | 2.1 | 86.8 |  |  |  |  | 
27 | CC(C)=CCc1c(O)cc2occ(-c3ccc(O)cc3)c(=O)c2c1O [Compound 27, wighteone] | 104 | 2.2 | 46.6 |  |  |  |  | 
28 | COc1c(-c2coc3cc4c(cc3c2=O)C=CC(C)(C)O4)ccc2c1C=CC(C)(C)O2 [Compound 23, munetone] | 38.8 | 5.3 | 7.35 |  |  |  |  | 
29 | C=C(C)[C@H]1Cc2cc3c(cc2O1)OC[C@H]1c2cc4c(cc2O[C@@H]31)OCO4 [Compound 17, emoroidocarpan] | 84.8 | 1.8 | 47.8 |  |  |  |  | 
30 | COc1cc2c(cc1OC)[C@@H]1C(=O)c3ccc4occc4c3O[C@@H]1CO2 [Compound 35, elliptone] | 99 | 5.4 | 18.2 |  |  |  |  | 
31 | COc1cc2c(cc1C1COc3cc(O)ccc3C1)OCO2 (stereo not shown) [Compound 5, astraciceran] | 75.4 | 0.8 | 94.1 |  |  |  |  | 
32 | CC1(C)C=Cc2c(ccc(-c3coc4cc(O)ccc4c3=O)c2O)O1 [Compound 20, glabrone] | 186 | 1.2 | 149 |  |  |  |  | 
33 | CC1(C)C=Cc2c(ccc(-c3coc4cc(O)c(O)cc4c3=O)c2O)O1 [Compound 21, 5′,6,7-trihydroxy-2′,2′-dimethyl-2′H,4H-[3,6′-bichromen]-4-one] | 76.6 | 1.4 | 56.8 |  |  |  |  | 
34 | COc1cc(O)ccc1C1COc2cc3c(cc2C1)CC(C(C)(C)O)O3 (stereo not shown) [Compound 6, 4-(2-(2-hydroxypropan-2-yl)-2,3,6,7-tetrahydro-5H-furo[3,2-g]chromen-6-yl)-3-methoxyphenol] | 154 | 0.8 | 203 |  |  |  |  | 
35 | CC(=O)OC1C2c3c(ccc4c3OC(c3ccccc3)CC4=O)OC2OC1(C)C (single isomer, unassigned; (-)) [Compound 11, (−)-purpurin] | 6.25 | 3.5 | 1.78 |  |  |  |  | 
36 | CC(=O)OC(C1COc2ccc3c(c21)OC(c1ccccc1)CC3=O)C(C)(C)O (stereo not shown) [Compound 13, 2-hydroxy-2-methyl-1-(4-oxo-2-phenyl-3,4,8,9-tetrahydro-2H-furo[2,3-h]chromen-9-yl)propyl acetate] | 131 | 1.1 | 123 |  |  |  |  | 
37 | CC(=O)OC(C1COc2ccc3c(c21)OC(c1ccc(O)cc1)CC3=O)C(C)(C)O (stereo not shown) [Compound 12, 2-hydroxy-1-(2-(4-hydroxyphenyl)-4-oxo-3,4,8,9-tetrahydro-2H-furo[2,3-h]chromen-9-yl)-2-methylpropyl acetate] | 99.4 | 1.7 | 58.8 |  |  |  |  | 
38 | O=C(Cn1ccnc1[N+](=O)[O-])NCc1ccccc1 [Benznidazole, reference compound] |  |  | 3.14 |  |  |  |  | 
39 | COc1cc2c(cc1OC)[C@]1(O)C(=O)c3cc4ccoc4cc3O[C@@H]1CO2 (relative stereo) [Compound 31, 12a-hydroxyerosone] | 113 | 5.7 | 19.7 |  |  |  |  | 
40 | COc1cc(O)ccc1C1COc2cc(O)ccc2C1 (stereo not shown) [Compound 4, 7,4′-dihydroxy-2′-methoxyisoflavan] | 358 | 1.4 | 247 |  |  |  |  | 
41 | COc1cc2c(cc1OC)C1C(CO2)Oc2c(ccc3occc23)C1OC(C)=O (stereo not drawn) [Compound 34, 12-deoxo-12α-acetoxyelliptone] | 104 | 3.8 | 27.1 |  |  |  |  | 
